# Tests used:
# Pseudomonas Fluorescens [1] = assay type: cell-based; details: breaker 1.0 gpt added to 0.25 gpt biocide; 1% KCl water pH 7.7, 77° F., 1 h and 5 h
# Description: 500 mL of 1% KCl water, buffered with sodium bicarbonate to pH 7.7 was inoculated with 10 mL of a Nutrient Broth containing live Pseudomonas f. and blended on a Waring lab blender at 2000 rpm for 5 minutes. After blending, it was separated into 30 mL samples in separate bottles. The first and last bottles were left without biocide or breaker to act as controls. The remaining samples were treated with varying concentrations of biocide and oxidizing breakers.
# Biocidal activity analysis was completed using a […]® PhotonMaster™ luminometer and Quench-Gone™ Organic Modified (QGO-M) ATP test kit. At the initial time (Time 0), both control samples were tested using the ATP kit. All samples were then incubated at 77° F. All samples (5 mL) were then tested using the ATP kit at one hour and again at 5 hours.
# Pseudomonas Fluorescens [2] = details: well water, 72° F.
# Description: The biocidal activity of THPS/oxidizing breaker compositions against Pseudomonas Fluorescens was examined. In the first experiment, 2 L of well water was inoculated with 4 mL of a Nutrient Broth containing live Pseudomonas f. and stirred using an overhead mixer at 2000 rpm. After thorough mixing, and with the mixer running, 150 mL samples were taken with a syringe and inserted into separate bottles. The first and last bottles were left without biocide or breaker to act as controls. The remaining samples were treated with varying concentrations of biocide and oxidizing breakers.
# Biocidal activity analysis was completed using a […]® PhotonMaster™ luminometer and Quench-Gone™ Organic Modified (QGO-M) ATP test kit. At the initial time (Time 0), both control samples were tested using the ATP kit. All samples were then left at ambient lab temperature (72° F.). All samples (20 mL each) were then tested using the ATP kit at one hour and at 24 hours.
Molecule,effect of added breaker on decrease in microbial activity (ATP analysis) (Pseudomonas Fluorescens [1]),"compatibility of biocidal activity with oxidizing breakers (ATP analysis) (Pseudomonas Fluorescens [2]; THPS 20% 0.25 or 0.50 gpt with sodium persulfate, hydrogen peroxide 7% or sodium chlorite 8%, 1 h and 24 h)","effect of addition of the breakers on biocidal properties (ATP analysis) (Pseudomonas Fluorescens [2]; THPS concentration of 0.25 gpt, 1 h and 24 h (FIG. 5))"
sodium chlorite [sodium chlorite 8%],may be accelerated or enhanced slightly,,
tetrakis(hydroxymethyl)phosphonium sulphate [THPS],,no apparent incompatibility,appears to enhance or accelerate the biocidal properties
"OO [hydrogen peroxide 7%, hydrogen peroxide]",may be accelerated or enhanced slightly,,
